{"source": "paper PMC4742234", "about": "“Screening of Drug Metabolizing Enzymes for the Ginsenoside Compound K In Vitro: An Efficient Anti-Cancer Substance Originating from Panax Ginseng” (PLoS ONE, 2016)", "key": {"[1]": {"assay": "Plasma pharmacokinetics of CK in healthy volunteers", "conditions": "male, human, 800 mg", "protocol": "Note that in our other study carried out in healthy volunteers, 10 healthy male volunteers received administrations of 800 mg pure CK tablets (100mg/tablet, provided by Zhejiang Hisun Pharmaceutical Company Limited, China) swallowed by 150 mL water, then series venous blood samples of 5 mL were collected into EDTA-containing tubes at 0, 0.25, 0.5, 1, 1.5, 2, 2.5, 3, 3.5, 4, 5, 6, 8, 12, 24, 36, 48, 72 and 96h. The plasma samples were analyzed by HPLC-MS/MS, the peak plasma concentration (Cmax) and time to peak plasma concentration (Tmax) were directly obtained from the observed concentration-time data. The area under the plasma concentration-time curve (AUC) from time zero to last measured concentration (AUC(0−t)) was calculated according to the linear trapezoidal rule, the estimate of oral clearance(CL/F) was calculated as CL/F = Dose /AUC(0–t)."}, "[2]": {"assay": "Kinetic analysis of CK metabolism in human liver microsomes", "type": "in vitro ADME", "conditions": "human, human liver microsomes, pH 7.4, HLMs 0.5 mg/mL, CK 10–100 μM, 37°C, NADPH", "protocol": "(§1) The method was conducted according to our previous study with some modifications. The CYP isoform-specific probe reactions used were phenacetin O-deethylation (for CYP1A2), coumarin 7-hydroxylation (for CYP2A6), tolbutamide 4-hydroxylation (for CYP2C9), metoprolol α-hydroxylation (for CYP2D6), chlorzoxazone 6-hydroxylation (for CYP2E1),S-Mephenytoin 4-hydroxylation (for CYP2C19), and midazolam 1-hydroxylation (for CYP3A4). The kinetic study of CK was conducted with HLMs. A 0.2 mL incubation mixture that consisted of CK (as a substrate), the HLMs (0.5 mg/mL) or CYP isoforms (10 pmol), and 0.1 M sodium phosphate buffer (pH 7.4) was pre-warmed for 5 min at 37°C. The reaction was initiated by the addition of 1 mg/mL triphosphopyridine nucleotide (NADPH). All the reagents were dissolved in methanol, and the final solvent concentration in all incubations (including the controls) was 1%. The final incubations were performed in a shaking water bath (37°C) for 30 min. The reactions were stopped by adding 0.2 mL ice-cold acetonitrile, which contains irbesartan (114.9 ng/mL) as the internal standard. The samples were vortexed for 5 min. After centrifugation (12000×g for 10 min), the supernatants were transferred, and aliquots of 20 μL were injected into the HPLC-MS/MS system for analysis. […]"}, "[3]": {"system": "human liver microsomes (HLMs)", "assay": "Kinetic analysis of CK metabolism in human liver microsomes", "type": "in vitro ADME", "conditions": "HLMs 0.5 mg/mL, CK 10–100 μM, 37°C, 30 min, NADPH", "protocol": "as §1"}, "CYP2E1": {"biological_target": "T1, CYP2E1 (Homo sapiens, UniProt P05181)", "T1 construct": "tissue Cypex Ltd. (U.K.); host or cells: pooled human liver microsomes", "T1 sequence (P05181 whole entry, canonical isoform)": "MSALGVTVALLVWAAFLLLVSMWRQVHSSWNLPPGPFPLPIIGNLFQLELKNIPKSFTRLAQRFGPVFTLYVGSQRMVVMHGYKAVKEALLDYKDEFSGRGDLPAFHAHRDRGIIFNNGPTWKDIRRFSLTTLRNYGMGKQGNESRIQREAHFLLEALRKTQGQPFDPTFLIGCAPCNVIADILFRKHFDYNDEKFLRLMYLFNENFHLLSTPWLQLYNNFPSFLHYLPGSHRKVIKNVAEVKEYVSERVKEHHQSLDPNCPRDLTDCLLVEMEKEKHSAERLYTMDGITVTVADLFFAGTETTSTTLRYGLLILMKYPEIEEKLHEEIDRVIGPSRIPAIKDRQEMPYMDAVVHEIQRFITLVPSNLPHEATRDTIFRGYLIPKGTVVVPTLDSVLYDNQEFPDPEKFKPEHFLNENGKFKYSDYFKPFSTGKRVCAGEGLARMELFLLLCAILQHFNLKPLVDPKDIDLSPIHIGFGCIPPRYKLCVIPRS", "assay": "Inhibition of CYP2E1 (chlorzoxazone 6-hydroxylation) by CK in HLMs", "type": "in vitro ADME", "protocol": "(§2) The method was conducted according to our previous study with some modifications. The CYP isoform-specific probe reactions used were phenacetin O-deethylation (for CYP1A2), coumarin 7-hydroxylation (for CYP2A6), tolbutamide 4-hydroxylation (for CYP2C9), metoprolol α-hydroxylation (for CYP2D6), chlorzoxazone 6-hydroxylation (for CYP2E1),S-Mephenytoin 4-hydroxylation (for CYP2C19), and midazolam 1-hydroxylation (for CYP3A4). The kinetic study of CK was conducted with HLMs. A 0.2 mL incubation mixture that consisted of CK (as a substrate), the HLMs (0.5 mg/mL) or CYP isoforms (10 pmol), and 0.1 M sodium phosphate buffer (pH 7.4) was pre-warmed for 5 min at 37°C. The reaction was initiated by the addition of 1 mg/mL triphosphopyridine nucleotide (NADPH). All the reagents were dissolved in methanol, and the final solvent concentration in all incubations (including the controls) was 1%. The final incubations were performed in a shaking water bath (37°C) for 30 min. The reactions were stopped by adding 0.2 mL ice-cold acetonitrile, which contains irbesartan (114.9 ng/mL) as the internal standard. The samples were vortexed for 5 min. After centrifugation (12000×g for 10 min), the supernatants were transferred, and aliquots of 20 μL were injected into the HPLC-MS/MS system for analysis.\nCK (10–100 μM) and a single CYP isoform-specific substrate (with a concentration similar to its corresponding Kmvalue) were used to determine the inhibitory effect of CK on specific CYP isoforms as described in detail previously. Substrates including phenacetin, coumarin, tolbutamide, metoprolol, chlorzoxazone, S-Mephenytoin, and midazolam were used at concentrations of 10, 5, 100, 7.5, 40, 100, and 5 μM, respectively. All incubation conditions were the same as mentioned above. The inhibitory effects on the CYP isoforms were investigated individually by incubating the HLMs in the absence or presence of CK. […]"}, "CYP3A4": {"biological_target": "CYP3A4 (Homo sapiens, UniProt P08684)", "sequence (P08684 whole entry, canonical isoform)": "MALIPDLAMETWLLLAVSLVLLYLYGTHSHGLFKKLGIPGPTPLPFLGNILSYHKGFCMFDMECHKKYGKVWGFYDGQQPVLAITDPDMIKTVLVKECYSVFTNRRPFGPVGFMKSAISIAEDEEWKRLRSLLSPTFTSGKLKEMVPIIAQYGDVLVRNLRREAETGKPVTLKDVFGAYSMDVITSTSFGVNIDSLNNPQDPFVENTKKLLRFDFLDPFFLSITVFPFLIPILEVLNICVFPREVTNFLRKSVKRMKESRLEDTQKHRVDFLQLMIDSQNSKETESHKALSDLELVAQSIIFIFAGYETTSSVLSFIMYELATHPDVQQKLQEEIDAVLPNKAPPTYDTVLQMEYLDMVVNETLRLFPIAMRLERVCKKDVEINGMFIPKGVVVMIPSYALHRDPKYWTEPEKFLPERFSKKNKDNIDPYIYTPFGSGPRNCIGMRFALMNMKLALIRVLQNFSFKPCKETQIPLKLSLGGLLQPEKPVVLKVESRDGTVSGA", "assay": "Inhibition of CYP3A4 (midazolam 1-hydroxylation) by CK in HLMs", "type": "in vitro ADME", "parameters": "tissue Cypex Ltd. (U.K.); host or cells: pooled human liver microsomes", "protocol": "as §2\nCK (10–100 μM) and a single CYP isoform-specific substrate (with a concentration similar to its corresponding Kmvalue) were used to determine the inhibitory effect of CK on specific CYP isoforms as described in detail previously. Substrates including phenacetin, coumarin, tolbutamide, metoprolol, chlorzoxazone, S-Mephenytoin, and midazolam were used at concentrations of 10, 5, 100, 7.5, 40, 100, and 5 μM, respectively. All incubation conditions were the same as mentioned above. The inhibitory effects on the CYP isoforms were investigated individually by incubating the HLMs in the absence or presence of CK. The incubation solution with the solvent that was used to dissolve CK was regarded as the negative control, and the solutions containing the specific inhibitors mentioned above were considered the positive controls.\nThe inhibition data obtained from the pilot experiments were used as a guide to generate the appropriate probe substrate and test inhibitor concentrations for the determination of the Ki values for each CYP isoform. The isoform-specific probe substrate concentrations used were 25–200 μM tolbutamide for CYP2C9 and 5–50 μM midazolam for CYP3A4. The CK concentrations used were 10–100 μM.\nWhen Ki>Ki’, the intersection was above the [I] axis in the plot of S/V against [I] and below it in the Dixon plot; the opposite was true if Ki<Ki’. In the special case where Ki = Ki’ (simple non-competitive inhibition), the intersections occurred on the [I] axis in both plots. The asymptotic cases of competitive and uncompetitive inhibition can be generated by inserting the conditions Ki’ to ∞ for competitive inhibition, or Ki to ∞ for uncompetitive inhibition.\nAs described in detail previously, to determine the major enzymes responsible for the CK metabolism in HLMs, the metabolic clearance rate of the incubation solution without any specific inhibitor for CK was considered as 100%. The effects of the specific inhibitors on the metabolic clearance rate of CK were evaluated with SPSS one-way analysis of variance (SPSS Inc., Chicago, IL, USA). P<0.05 was considered significant in all cases. The apparent kinetic parameters of CK (Km and Vmax) were determined by fitting the Michaelis–Menten equation using the GraphPad Prism Enzyme Kinetic 5 Demo software (GraphPad Co. Ltd, San Diego, CA, USA)."}, "[4]": {"conditions": "classified by IC50 according to Kong et al"}, "[5]": {"conditions": "CYP3A4 in HLMs, ketoconazole values ref 17"}}, "note": "“And” between values parts separate entries of the source, which are not always exact repeats. Identical values can stand only once. “Also recorded” adds a separate entry of the source.", "data": [{"compound": "CC(C)=CCC[C@](C)(OC1O[C@H](CO)[C@@H](O)[C@H](O)[C@H]1O)[C@H]1CC[C@]2(C)[C@@H]1[C@H](O)C[C@@H]1[C@@]3(C)CC[C@H](O)C(C)(C)[C@@H]3CC[C@]12C", "note": "(stereo partly drawn) [CK, 20-O-β-(D-glucopyranosyl)-20(S)-protopanaxadiol]", "values": [{"measurement": "Cmax", "setting": "[1]; oral", "value": "~5", "unit": "µM"}, {"measurement": "Cmax", "setting": "[1]; po", "value": 4.07, "unit": "µM"}, {"measurement": "Km at 30 min", "setting": "[2]", "value": "84.2 ± 21.9", "unit": "µM"}, {"measurement": "Vmax of CK metabolism", "setting": "[3]", "value": "0.28±0.04 nmol/mg protein/min and 0.2840 nmol/mg protein/min"}, {"measurement": "inhibitory effect on the activity of CYP2E1", "setting": "CYP2E1; HLMs, CK 10–100 μM", "value": "minimal; also recorded: negligible"}, {"measurement": "IC50", "setting": "CYP2E1; HLMs, chlorzoxazone 40 μM, CK 10–100 μM", "value": "> 100", "unit": "µM"}, {"measurement": "inhibitor potency class for CYP2E1", "setting": "CYP2E1; [4]", "value": "weak (weak, if IC50≥100 μg/mL or ≥50 μM)"}, {"measurement": "IC50 of CK higher than that of ketoconazole", "setting": "CYP3A4; [5]", "value": "41-123 fold"}, {"measurement": "Ki of CK higher than that of ketoconazole", "setting": "CYP3A4; [5]", "value": 761, "unit": "fold"}, {"measurement": "type of inhibition of CYP3A4", "setting": "CYP3A4; HLMs, Dixon and S/V versus [I] plots", "value": "noncompetitive"}, {"measurement": "IC50", "setting": "CYP3A4; HLMs, midazolam 1-hydroxylation, midazolam 5 μM, CK 10–100 μM", "value": "9.83 µM and 9.82 µM"}, {"measurement": "Ki", "setting": "CYP3A4; HLMs, midazolam 5–50 μM, secondary plot of Lineweaver–Burk slopes", "value": 11.4, "unit": "µM"}, {"measurement": "inhibitor potency class for CYP3A4", "setting": "CYP3A4; [4]", "value": "potent (potent, if IC50≤ 20 μg/mL or ≤10 μM)"}]}]}
